Data on 35 compounds can be found in patent US5462954A, “Substituted phenyl phenol leukotriene antagonists” (Eli Lilly and Company, priority 1994, dated 1995).

Structures can show the parent of a compound that is named as a salt.

The target of this assay is binding of tritiated LTB4 to guinea pig lung membranes (Cavia porcellus, UniProt H0VYV8). Kind of assay: biochemical. The conditions noted are these: read-out: pKi (mean -log Ki) (converted).
Sequence of binding of tritiated LTB4 to guinea pig lung membranes (H0VYV8 1-348): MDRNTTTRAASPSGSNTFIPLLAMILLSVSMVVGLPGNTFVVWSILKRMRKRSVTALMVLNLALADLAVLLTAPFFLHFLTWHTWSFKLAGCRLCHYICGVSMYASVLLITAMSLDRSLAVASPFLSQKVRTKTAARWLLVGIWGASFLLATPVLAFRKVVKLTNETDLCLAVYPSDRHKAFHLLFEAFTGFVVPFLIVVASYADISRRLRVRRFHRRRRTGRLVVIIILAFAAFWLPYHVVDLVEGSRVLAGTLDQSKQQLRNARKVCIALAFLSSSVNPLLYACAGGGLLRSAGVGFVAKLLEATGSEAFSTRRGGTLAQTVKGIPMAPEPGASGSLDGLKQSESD
Experimental: The effectiveness of compounds of Formula I to inhibit the binding of tritiated LTB4 to guinea pig lung membranes was determined as follows.
The binding reaction was terminated by the addition of 1 mL ice cold wash buffer (25 mM Tris-HCl, pH 7.5) followed immediately by vacuum filtration over Whatman GF/C glass fiber filters using a Brandel (Gaithersburg, Md.) 48 place harvester. The filters were washed three times with 1 mL of wash buffer. Retained radioactivity was determined by liquid scintillation counting at 50% counting efficiency using Ready Protein Plus cocktail (Beckman, Fullerton, Calif.). Nondisplaceable binding was determined in the presence of 1 μM LTB4 and was usually less than 10% of total binding. […] The data reported below is the mean -log Ki, otherwise known as the pKi, for n experiments.
A word on the Ki: it is a dissociation constant, usually derived from enzyme kinetics or from competition with a known ligand. Regarding `CCc1cc(-c2ccc(F)cc2)c(O)cc1OCC/C=C\c1ccccc1CCC(=O)O` [9 (cis), 3-(2-(4-(2-Ethyl-4-(4-fluorophenyl)-5-hydroxyphenoxy)-(1-butenyl))phenyl)propionic acid], the Ki was 3.63 nM.

In the case of `CCc1cc(-c2ccc(F)cc2)c(O)cc1OCC/C=C/c1ccccc1CCC(=O)O` [9 (trans), 3-(2-(4-(2-Ethyl-4-(4-fluorophenyl)-5-hydroxyphenoxy)-(1-butenyl))phenyl)propionic acid], the inhibition constant (Ki) is 3.89 nM.

Consider `CCc1cc(-c2ccc(F)cc2)c(O)cc1OCCCOc1cccc(OCCCCC(=O)N(C)C)c1CCC(=O)O` [Example 3, 3-(2-(3-(2-Ethyl-4-(4-fluorophenyl)-5-hydroxyphenoxy)propoxy)-6-(4-dimethylaminocarbonylbutyloxy)phenyl)propionic acid], for which the inhibitory constant (Ki) was 8.32 nM.

For `CCc1cc(-c2ccc(F)cc2)c(O)cc1OCCCOc1ccccc1CCC(=O)O` [Example 4, 3-(2-(3-(2-Ethyl-4-(4-fluorophenyl)-5-hydroxyphenoxy)propoxy)phenyl)propionic acid], the Ki was 3.63 nM.

Take `CCc1cc(-c2ccc(F)cc2)c(O)cc1OCCCOc1cccc(OCCCCC(=O)O)c1CCC(=O)O` [Example 5, 3-(2-(3-(2-Ethyl-4-(4-fluorophenyl)-5-hydroxyphenoxy)propoxy)-6-(4-carboxybutyloxy)phenyl)propionic acid]: the inhibitory constant (Ki) is 0.55 nM.

Regarding `CCc1cc(-c2ccc(F)cc2)c(O)cc1OCCCOc1cccc(OC)c1CCC(=O)O` [Example 6, 3-(2-(3-(2-Ethyl-4-(4-fluorophenyl)-5-hydroxyphenoxy)propoxy)-6-methoxyphenyl)propionic acid], the Ki was 5.01 nM.

Take `CCc1cc(-c2ccc(F)cc2)c(O)cc1OCCCOc1cccc(OCCCCc2nnn[nH]2)c1CCC(=O)O` [Example 7, 3-(2-(3-(2-Ethyl-4-(4-fluorophenyl)-5-hydroxyphenoxy)propoxy)-6-(4-(1H-tetrazol-5-yl)butyloxy)phenyl)propionic acid]: the Ki is 1.35 nM.

For the compound `CCc1cc(-c2ccc(F)cc2)c(O)cc1OCCC=Cc1ccccc1CCC(=O)O` [Example 9, 3-(2-(4-(2-Ethyl-4-(4-fluorophenyl)-5-hydroxyphenoxy)-(1-butenyl))phenyl)propionic acid], the inhibition constant (Ki) was 5.13 nM.

As to `CCc1cc(-c2ccc(F)cc2)c(O)cc1OCCCCc1ccccc1CCC(=O)O` [Example 10, 3-(2-(4-(2-Ethyl-4-(4-fluorophenyl)-5-hydroxyphenoxy)butyl)phenyl)propionic acid], the Ki is 8.91 nM.

For `CCc1cc(-c2ccc(F)cc2)c(O)cc1OCCCCc1cccc(OC)c1CCC(=O)O` [Example 11, 3-(2-(4-(2-Ethyl-4-(4-fluorophenyl)-5-hydroxyphenoxy)butyl)-6-methoxyphenyl)propionic acid], the inhibitory constant (Ki) was 21.4 nM.

On to `CCc1cc(-c2ccc(F)cc2)c(O)cc1OCCCOc1cccc(O)c1CCC(=O)O` [Example 13, 3-(2-(3-(2-Ethyl-4-(4-fluorophenyl)-5-hydroxyphenoxy)propoxy)-6-hydroxyphenyl)propionic acid], for which the inhibition constant (Ki) was 0.977 nM.

In the case of `CCCCOc1cccc(OCCCOc2cc(O)c(-c3ccc(F)cc3)cc2CC)c1CCC(=O)O` [Example 14, 3-(2-(3-(2-Ethyl-4-(4-fluorophenyl)-5-hydroxyphenoxy)propoxy)-6-(4-butyloxy)phenyl)propionic acid], the inhibition constant (Ki) was 30.2 nM.

On to `CCc1cc(-c2ccc(F)cc2)c(O)cc1OCCCOc1cccc(OCCCCSC)c1CCC(=O)O` [Example 15, 3-(2-(3-(2-Ethyl-4-(4-fluorophenyl)-5-hydroxyphenoxy)propoxy)-6-(4-methylthiobutyloxy)phenyl)propionic acid], for which the inhibitory constant (Ki) is 5.89 nM.

As for `O=C(O)CCCCOc1cccc(OCCCOc2cc(O)c(-c3ccc(F)cc3)cc2-c2ccc(F)cc2)c1CCC(=O)O` [Example 16, 3-(2-(3-(2,4-Di(4-fluorophenyl)-5-hydroxyphenoxy)propoxy)-6-(4-carboxybutoxy)phenyl)propionic acid], the inhibition constant Ki is 17.4 nM.

Consider `CCCCCC(C)(CCCCCOc1cc(O)c(-c2ccc(F)cc2)cc1CC)c1nnn[nH]1` (centres unmarked) [Example 17, 6-Methyl-6-(1H-tetrazol-5-yl)-11-(2-ethyl-4-(4-fluorophenyl)-5-hydroxyphenoxy)undecane], for which the inhibition constant (Ki) is 53.7 nM.

Regarding `CCc1cc(-c2ccc(F)cc2)c(O)cc1OCCCOc1ccccc1CCC(=O)N(C)C` [Example 18, N,N-Dimethyl-3-(2-(3-(2-ethyl-4-(4-fluorophenyl)-5-hydroxyphenoxy)propoxy)phenyl)propionamide], the Ki was 245 nM.

Consider `CCc1cc(-c2ccc(F)cc2)c(O)cc1OCCCOc1ccccc1CCC(=O)NS(C)(=O)=O` [Example 19, N-Methanesulfonyl-3-(2-(3-(2-ethyl-4-(4-fluorophenyl)-5-hydroxyphenoxy)propoxy)phenyl)propionamide], for which the Ki was 1.51 nM.

`CCc1cc(-c2ccc(F)cc2)c(O)cc1OCCCOc1ccccc1CCC(=O)NS(=O)(=O)c1ccccc1` [Example 20, N-Phenylsulfonyl-3-(2-(3-(2-ethyl-4-(4-fluorophenyl)-5-hydroxyphenoxy)propoxy)phenyl)propionamide]: the Ki was 2.29 nM.

`CCCCc1cc(-c2ccc(F)cc2)c(O)cc1OCCCOc1ccccc1CCC(=O)O` [Example 21, 3-(2-(3-(2-Butyl-4-(4-fluorophenyl)-5-hydroxyphenoxy)propoxy)phenyl)propionic acid]: the Ki was 47.9 nM.

Consider `CCc1cc(-c2ccc(F)cc2)c(O)cc1OCCCCOc1ccccc1CCC(=O)O` [Example 23, 3-(2-(4-(2-Ethyl-4-(4-fluorophenyl)-5-hydroxyphenoxy)butyloxy)phenyl)propionic acid], for which the Ki is 3.72 nM.

As to `CCc1cc(-c2ccc(F)cc2)c(O)cc1OCCCOc1cccc(Oc2ccc(C(=O)O)cc2)c1CCC(=O)O` [Example 25, 3-(2-(3-(2-Ethyl-4-(4-fluorophenyl)-5-hydroxyphenoxy)propoxy)-6-(4-carboxyphenoxy)phenyl)propionic acid], the Ki was 0.138 nM.

Consider `CCc1cc(-c2ccc(F)cc2)c(O)cc1OCCCOc1cc(Oc2ccc(C(=O)O)cc2)ccc1CCC(=O)O` [Example 26, 3-(2-(3-(2-Ethyl-4-(4-fluorophenyl)-5-hydroxyphenoxy)propoxy)-4-(4-carboxyphenoxy)phenyl)propionic acid], for which the inhibition constant Ki is 13.8 nM.

With `CCc1cc(-c2ccc(F)cc2)c(O)cc1OCCCOc1ccccc1C(C)(C)CC(=O)O` [Example 27, 3,3-Dimethyl-3-(2-(3-(2-ethyl-4-(4-fluorophenyl)-5-hydroxyphenoxy)propoxy)phenyl)propionic acid], the Ki was 2.29 nM.

For `CCc1cc(-c2ccc(F)cc2)c(O)cc1OCCCOc1ccccc1CC(C)(C)c1nnn[nH]1` [Example 28, 2-Methyl-2-(1H-tetrazol-5-yl)-3-(2-(3-(2-ethyl-4-(4-fluorophenyl)-5-hydroxyphenoxy)propoxy)phenyl)propane], the inhibitory constant (Ki) was 2.69 nM.

For the compound `CCc1cc(-c2ccc(F)cc2)c(O)cc1OCCCOc1ccccc1C(O)C(C)(C)c1nnn[nH]1` (centres unmarked) [Example 29, 2-Methyl-2-(1H-tetrazol-5-yl)-3-hydroxy-3-(2-(3-(2-ethyl-4-(4-fluorophenyl)-5-hydroxyphenoxy)propoxy)phenyl)propane], the Ki was 1.95 nM.

Turning to `O=C(O)CCc1ccccc1OCCCOc1cc(O)c(-c2ccc(F)cc2)cc1Br` [Example 30, 3-(2-(3-(2-Bromo-4-(4-fluorophenyl)-5-hydroxyphenoxy)propoxy)phenyl)propionic acid], the inhibition constant Ki was 186 nM.

For `CCSc1cc(-c2ccc(F)cc2)c(O)cc1OCCCOc1ccccc1CCC(=O)O` [Example 31, 3-(2-(3-(2-Ethylthio-4-(4-fluorophenyl)-5-hydroxyphenoxy)propoxy)phenyl)propionic acid], the Ki was 81.3 nM.

Consider `CCc1cc(-c2ccc(F)cc2)c(O)cc1OCCCOc1ccc(CCCCC(=O)O)c2c1CCC(=O)O2` [Example 33, 5-(3-(2-Ethyl-4-(4-fluorophenyl)-5-hydroxyphenoxy)propoxy)-8-(4-carboxybutyl)dihydrocoumarin], for which the Ki was 0.257 nM.

With `CCc1cc(-c2ccccc2)c(O)cc1OCCCOc1ccc2c(c1CCC(=O)O)CCC(CC(=O)O)C2=O` (centres unmarked) [Example 50, 3-(5-(6-(4-Phenyl-5-hydroxy-2-ethylphenoxy)propoxy)-2-carboxymethyl-1,2,3,4-tetrahydronaphthalen-1(2H)-one)propanoic acid], the inhibition constant (Ki) is 0.851 nM.

For `CCc1cc(-c2ccc(F)cc2)c(O)cc1OCCCOc1ccc2c(c1CCC(=O)O)CCC(CC(=O)O)C2=O` (centres unmarked) [Example 51, 3-(5-(6-(4-(4-Fluorophenyl)-5-hydroxy-2-ethylphenoxy)propoxy)-2-carboxymethyl-1,2,3,4-tetrahydronaphthalen-1(2H)-one)propanoic acid], the inhibition constant (Ki) is 0.219 nM.

Turning to `CCc1cc(-c2ccc(F)cc2)c(O)cc1OCCCOc1ccc2c(c1CCC(=O)O)CC(CC(=O)O)C2=O` (centres unmarked) [Example 52, 3-(4-(5-(4-(4-Fluorophenyl)-5-hydroxy-2-ethylphenoxy)propoxy)-2-carboxymethyl-2,3-dihydroinden-1(2H)-one)propanoic acid], the Ki is 0.263 nM.

Turning to `CCc1cc(-c2ccc(F)cc2)c(O)cc1OCCCOc1ccc(C(=O)CC(C)(C)CC(=O)O)cc1CCC(=O)O` [Example 53], the Ki was 1.55 nM.

As for `CCCc1c(OCCCOc2cc(O)c(-c3ccccc3)cc2CC)ccc2c1OC(C(=O)O)CC2` (centres unmarked) [Example 54, 7-[3-[(5-Ethyl-2-hydroxy[1,1'-biphenyl]-4-yl)oxy]propoxy]-3,4-dihydro-8-propyl-2H-1-benzopyran-2-carboxylic acid], the inhibition constant Ki is 1.2 nM.

Consider `CCc1cc(-c2ccccc2)c(O)cc1OCCCOc1ccc2oc3ccccc3c2c1CCC(=O)O` [Example 59, 3-[2-[3-[(5-Ethyl-2-hydroxy[1,1'-biphenyl]-4-yl)oxy]propoxy]-1-dibenzofuran]propanoic acid disodium salt], for which the Ki is 51.3 nM.

With `CCc1cc(-c2ccccc2)c(O)cc1OCCCOc1ccc2c(=O)c3cc(C(=O)O)ccc3oc2c1CCC(=O)O` [Example 60, 7-Carboxy-9-oxo-3-[3-(2-ethyl-5-hydroxy-4-phenylphenoxy)propoxy]-9H-xanthene-4-propanoic acid disodium salt monohydrate], the Ki was 0.0646 nM.
